Assay results as given in patent publication US20240277772A1, “COMBINED ADMINISTRATION COMPOSITION FOR PREVENTING OR TREATING ATOPIC DERMATITIS, COMPRISING FUNCTION-ENHANCED STEM CELLS AND REGULATORY T CELLS” (SCM LIFESCIENCE CO., LTD., priority 2021, published 2024).

system: mesenchymal stem cells; assay: qRT-PCR of IDO and TSG6 expression in mesenchymal stem cells treated with priming candidates; format: cell-based; details: Table 1 compositions, 24 hours, FIG. 4, compared to untreated control or to single substances
Protocol: In a 37° C. and 5% CO2 incubator, mesenchymal stem cells in a storage state (LN2 tank storage) were thawed and cultured, and at this time, the cells were cultured in a medium (DMEM, alpha-MEM) containing 10% FBS or 4% hPL until proliferated to a cell confluence of about 80%. The cultured mesenchymal stem cells were seeded in a 100 mm dish and treated with candidate substances for enhancing the functions of the mesenchymal stem cells for 24 hours, and then the concentrations of primary candidate substances for enhancing the functions were set.
TNF-α, IFN-γ, and IFN-α were selected as the primary candidate substances, and in order to confirm the lowest effective concentration capable of increasing the expression of TNFα-stimulated gene-6 (TSG6) and indoleamine 2,3-dioxygenase (IDO) to confirm the enhanced functions, the stem cells were treated with 5, 10, and 20 ng/ml of TNF-α, 5, 10, and 20 ng/ml of IFN-γ, and 10, 20, and 40 ng/ml of IFN-α, respectively, and changes in expression of TSG6 and IDO were confirmed.
The IDO was known as an immunomodulatory factor that inhibited the proliferation of immune cells such as T cells by converting tryptophan, which was essential for T cell proliferation, into kynurenine, and the TSG6 was known as an anti-inflammatory regulator secreted from mesenchymal stem cells. After culturing the stem cells, total RNA was isolated using TRIzol (Invitrogen), and cDNA was synthesized from total RNA using PrimeScript™RT reagent Kit with gDNA Eraser (TaKaRa), and qRT-PCR was performed. The results of TSG6 and IDO according to the concentration of each candidate substance were illustrated in FIGS. 1, 2 and 3.
Through Example 1, in order to search for more function-enhanced compositions based on the candidate substances and lowest effective concentrations identified to induce the enhanced functions of stem cells, selected candidate substances and combined concentrations thereof were set as shown in Table 1. Mesenchymal stem cells were treated with the candidate combinations described in Table 1 below for 24 hours, and the stem cells were cultured as in Example 1, and then total RNA was isolated using TRIzol (Invitrogen). Thereafter, qRT-PCR was performed by synthesizing cDNA from total RNA using the PrimeScript™RT reagent Kit with gDNA Eraser (TaKaRa).
Vitamins were known to improve the proliferative ability of stem cells and maintain the stemness of stem cells when added during a stem cell culture process. Accordingly, various vitamins were treated in the stem cell culture process, and experiments were performed to confirm whether or not vitamins could achieve anti-inflammatory and immune function enhancing effects of stem cells. Specifically, the stem cells were treated with various types of vitamins shown in Table 2 below according to the method described in Example 1, and the results of confirming changes in expression of IDO and TSG6 according to treatment with each candidate substance were illustrated in FIG. 5.

Substance	expression of IDO	expression of TSG6
IFN-α	increased expression	increased expression
IFN-γ [priming factor for stem cells, 10 ng/ml]	increased expression	increased expression
TNF-α	increased expression	increased expression

same assay, conditions: stem cells treated 24 hours, TNF-α and IFN-γ at 5, 10, 20 ng/ml, IFN-α at 10, 20, 40 ng/ml, FIGS. 1-3

Substance	lowest effective concentration capable of inducing significantly increased expression of both TSG6 and IDO
IFN-α	20 ng/mL
IFN-γ [priming factor for stem cells, 10 ng/ml]	10 ng/mL
TNF-α	10 ng/mL
